# Target: T1, mouse Tas2r144 (Mus musculus, UniProt Q7TQB8)
# T1 construct: expressed in transfected cells; host or cells: HEK293T-Gα16gust44
# Test: Calcium imaging assay (FLIPR), HEK293T-Gα16gust44 cells transfected with mouse Tas2r144
# Format: cell-based
# Procedure: This set of bile acids was chosen because of their commercial availability in high purities, their diversity within the class of bile acids and their previous detection and quantitation in human blood. Stock solutions were prepared in DMSO.
# As basal growth medium for the HEK293T-Gα16gust44 cell line[17],[59] served Dulbecco’s modified eagle medium (DMEM) (Thermo Fisher Scientific, Darmstadt, Germany) supplemented with 10 % fetal bovine serum (Sigma-Aldrich, Steinheim, Germany), 2 mM L-glutamine (Sigma-Aldrich, Steinheim, Germany), 100 units/ml penicillin (Sigma Aldrich, Steinheim, Germany) and 100 µg/ml streptomycin (Sigma Aldrich, Steinheim, Germany). Growth conditions were 37 °C, 5 % CO2 and saturated air-humidity[60].
# HEK293T-Gα16gust44 cells were seeded on poly-D-lysine (10 µg/ml) coated 96-well plates to reach a confluence of 40-60 % the next day. For transient transfection 150 ng of plasmid DNA containing the receptor of interest and 0.3 µl lipofectamine 2000 (Thermo Fisher Scientific, Darmstadt, Germany) per well were used and transfection took place according to the manual of lipofectamine 2000. […] The empty vector DNA (mock) was transfected as negative control[14],[41].
# Cells were loaded using the calcium-sensitive fluorescent dye Fluo-4-AM (Abcam, Cambridge, Great Britain) in the presence of 2.5 mM probenecid (Sigma-Aldrich, Steinheim, Germany) the day after transfection[13],[41]. 1 h after loading, cells were washed with C1 buffer using a BioTek Cell Washer, incubated in the dark for half an hour and washed again. For automated agonist application and measurement of fluorescence changes, a FLIPR^TETRA device (Molecular Devices, San José, United States) was used. Viability of cells was tested by application of 100 nM Somatostatin 14 (Bachem, Bubendorf, Switzerland)[42].
# Measured data were negative control corrected by subtracting the signal of the mock-transfected cells and exported to Microsoft Excel using the FLIPR software ScreenWorks 4.2. In Microsoft Excel software, standardization of maximum fluorescence intensities to the basal fluorescence and normalization to the buffer-only control was done to calculate the relative fluorescence changes (ΔF/F).
# Initial screening experiments performed in duplicate wells were confirmed by at least one replication and representative traces were selected for display. All dose-response relationships were determined by three independent experiments (biological replicates) performed in duplicates (technical replicates). Threshold concentrations, defined as lowest substance concentrations leading to statistically significant elevated fluorescence changes in receptor-transfected cells compared with empty vector-transfected cells, were determined using SigmaPlot with Student’s t-test to evaluate statistical significance (p < 0.01).
# T1 sequence (Q7TQB8 whole entry): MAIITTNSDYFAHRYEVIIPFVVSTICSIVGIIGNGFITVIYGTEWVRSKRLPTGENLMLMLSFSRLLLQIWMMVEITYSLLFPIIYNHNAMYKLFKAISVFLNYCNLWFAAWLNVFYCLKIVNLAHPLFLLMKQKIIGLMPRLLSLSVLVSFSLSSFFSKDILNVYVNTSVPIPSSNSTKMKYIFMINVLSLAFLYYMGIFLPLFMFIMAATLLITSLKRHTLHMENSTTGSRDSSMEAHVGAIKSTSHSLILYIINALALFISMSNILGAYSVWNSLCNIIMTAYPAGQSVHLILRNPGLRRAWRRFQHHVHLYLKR
compound,measurement,setting,value
"C[C@H](CCC(=O)O)[C@H]1CC[C@H]2[C@@H]3[C@H](O)C[C@@H]4C[C@H](O)CC[C@]4(C)[C@H]3C[C@H](O)[C@]12C [Cholic Acid, cholic acid]",RLU,Time 0 s,0 RLU
same,RLU,Time 2 s,0.2042 RLU
same,RLU,Time 4 s,5.384 RLU
same,RLU,Time 6 s,-45.6095 RLU
same,RLU,Time 8 s,13.5839 RLU
same,RLU,Time 12 s,34.8706 RLU
same,RLU,Time 14 s,52.0817 RLU
same,RLU,Time 16 s,11.4185 RLU
same,RLU,Time 18 s,29.9569 RLU
same,RLU,Time 18.781 s,46.048 RLU
same,RLU,Time 20.781 s,112.965 RLU
same,RLU,Time 22.781 s,165.689 RLU
same,RLU,Time 24.781 s,205.772 RLU
same,RLU,Time 26.781 s,242.163 RLU
same,RLU,Time 28.781 s,320.656 RLU
same,RLU,Time 30.781 s,367.762 RLU
same,RLU,Time 32.781 s,422.903 RLU
same,RLU,Time 34.781 s,499.119 RLU
same,RLU,Time 36.781 s,524.9 RLU
same,RLU,Time 38.781 s,565.569 RLU
same,RLU,Time 40.781 s,583.905 RLU
same,RLU,Time 42.781 s,606.644 RLU
same,RLU,Time 44.781 s,633.066 RLU
same,RLU,Time 46.781 s,639.921 RLU
same,RLU,Time 48.781 s,638.534 RLU
same,RLU,Time 50.781 s,641.518 RLU
same,RLU,Time 52.781 s,632.385 RLU
same,RLU,Time 54.781 s,644.317 RLU
same,RLU,Time 56.781 s,655.573 RLU
same,RLU,Time 58.781 s,678.513 RLU
same,RLU,Time 60.781 s,666.775 RLU
same,RLU,Time 62.781 s,667.745 RLU
same,RLU,Time 64.781 s,637 RLU
same,RLU,Time 66.781 s,647.88 RLU
same,RLU,Time 68.781 s,635.725 RLU
same,RLU,Time 70.781 s,644.081 RLU
same,RLU,Time 72.781 s,655.408 RLU
same,RLU,Time 74.781 s,647.263 RLU
same,RLU,Time 76.781 s,633.033 RLU
same,RLU,Time 78.781 s,631.561 RLU
same,RLU,Time 80.781 s,620.522 RLU
same,RLU,Time 82.781 s,627.467 RLU
same,RLU,Time 84.781 s,627.103 RLU
same,RLU,Time 86.781 s,578.642 RLU
same,RLU,Time 88.781 s,568.631 RLU
same,RLU,Time 90.781 s,548.759 RLU
same,RLU,Time 92.781 s,576.256 RLU
same,RLU,Time 94.781 s,543.082 RLU
same,RLU,Time 96.781 s,562.136 RLU
same,RLU,Time 98.781 s,521.114 RLU
same,RLU,Time 100.781 s,533.293 RLU
same,RLU,Time 102.781 s,509.746 RLU
same,RLU,Time 104.781 s,492.298 RLU
same,RLU,Time 106.781 s,485.694 RLU
same,RLU,Time 108.781 s,481.982 RLU
same,RLU,Time 110.781 s,458.143 RLU
same,RLU,Time 112.781 s,439.768 RLU
same,RLU,Time 114.781 s,433.077 RLU
same,RLU,Time 116.781 s,415.823 RLU
same,RLU,Time 118.781 s,408.859 RLU
same,RLU,Time 120.781 s,392.039 RLU
same,RLU,Time 122.781 s,431.314 RLU
same,RLU,Time 124.781 s,392.828 RLU
same,RLU,Time 126.781 s,373.554 RLU
same,RLU,Time 128.781 s,347.376 RLU
same,RLU,Time 130.781 s,337.354 RLU
same,RLU,Time 132.781 s,314.537 RLU
same,RLU,Time 134.781 s,326.444 RLU
same,RLU,Time 136.781 s,292.52 RLU
same,RLU,Time 137.562 s,313.513 RLU
same,RLU,Time 143.562 s,250.659 RLU
same,RLU,Time 149.562 s,229.584 RLU
same,RLU,Time 155.562 s,203.982 RLU
same,RLU,Time 161.562 s,211.817 RLU
same,RLU,Time 167.562 s,206.485 RLU
same,RLU,Time 173.562 s,171.281 RLU
same,RLU,Time 179.562 s,153.445 RLU
same,RLU,Time 185.562 s,144.359 RLU
same,RLU,Time 191.562 s,143.458 RLU
same,RLU,Time 197.562 s,135.182 RLU
same,RLU,Time 203.562 s,115.034 RLU
same,RLU,Time 209.562 s,107.877 RLU
same,RLU,Time 215.562 s,83.8781 RLU
same,RLU,Time 221.562 s,20.807 RLU
same,RLU,Time 227.562 s,27.2515 RLU
same,RLU,Time 233.562 s,-2.456 RLU
same,RLU,Time 239.562 s,17.5402 RLU
same,RLU,Time 245.562 s,-0.008323 RLU
same,RLU,Time 293.562 s,2 RLU
same,RLU,Time 299.562 s,-5.681 RLU
same,RLU,Time 305.562 s,20.6398 RLU
same,RLU,Time 311.562 s,25.3808 RLU
same,RLU,Time 317.562 s,16.3914 RLU
same,RLU,Time 323.562 s,41.1546 RLU
same,RLU,Time 329.562 s,-2.456 RLU
same,RLU,Time 335.562 s,34.2464 RLU
same,RLU,Time 341.562 s,21.8644 RLU
same,RLU,Time 347.562 s,15.2738 RLU
same,RLU,Time 353.562 s,29.9395 RLU
same,RLU,Time 359.562 s,27.2515 RLU
same,Activation threshold concentration Tas2r144,p < 0.01 vs empty vector,100 µM
